Peptide text beside a SMILES is read from it.
tested on: HLA-A24 type molecule, product of the HLA-A*2402 gene; test: Experiment of binding peptide to HLA-A24 type molecule (C1R-A24 cells, flow cytometry, Kd); design: species or system human; settings: −log Kd value
Experimental: After neutralization, purified β2m was added to C1R-A24 cells, and the obtained product was added to serial dilutions of a peptide, and incubated on ice for 4 hours.
Subsequently, the MHC-pep count per C1R-A24 cell (proportional to the strength of fluorescence of the above-mentioned fluorescent antibody) was quantitatively measured using an FACScan fluorescence-activated cell sorter (Becton Dickinson Biosciences). A binding dissociation constant Kd value between the HLA-A24 type molecule and the peptide was calculated from the average strength of fluorescence per cell by a published method (Udaka et al., Immunogenetics, 51, 816-828, 2000).

| Structure (SMILES) | binding experimental value |
| --- | --- |
| CC[C@H](C)[C@H](N)C(=O)N[C@H](C(=O)N[C@@H](Cc1ccc(O)cc1)C(=O)N[C@@H](CO)C(=O)N[C@H](C(=O)N[C@@H](Cc1ccc(O)cc1)C(=O)N[C@@H](CS)C(=O)N[C@@H](CCCCN)C(=O)N[C@@H](Cc1ccccc1)C(=O)O)[C@@H](C)O)[C@@H](C)O [SEQ ID NO: 40] (H-ITYSTYCKF-OH; N-terminus and C-terminus assumed) | 6.975 |
| CC[C@H](C)[C@H](N)C(=O)N[C@H](C(=O)N[C@@H](Cc1ccc(O)cc1)C(=O)N[C@@H](CO)C(=O)N[C@H](C(=O)N[C@@H](Cc1ccc(O)cc1)C(=O)NCC(=O)N[C@@H](CCCCN)C(=O)N[C@@H](Cc1ccccc1)C(=O)O)[C@@H](C)O)[C@@H](C)O [SEQ ID NO: 107] (H-ITYSTYGKF-OH; N-terminus and C-terminus assumed) | 6.374 |
| CC[C@H](C)[C@H](NC(=O)[C@@H]1CCCN1C(=O)[C@H](CC(=O)O)NC(=O)[C@H](Cc1ccccc1)NC(=O)[C@H](CO)NC(=O)[C@H](CC(=O)O)NC(=O)[C@H](CC(C)C)NC(=O)[C@@H](NC(=O)[C@@H](N)C(C)C)[C@@H](C)CC)C(=O)O [SEQ ID NO: 2] (H-VILDSFDPI-OH; N-terminus and C-terminus assumed) | 5.324 |
